Assays:
[1] = tested on: CRC patient primary tumor spheres
Experimental: TAMRA-acet.-STAT3 (red fluorescence) and PO-FAM-acet.-STAT3 (green fluorescence)
peptides were incubated with patient primary tumor sphere for 4 hours and the cell penetration
was visualized by confocal microscopy. Scale bar: 50 µm.
(D) The primary CRC tumor cells derived from PDX were treated with different concentrations of
PO- or PS-acet.-STAT3 peptide as indicated for 3 days. The cell viability was measured by
CellTiter Glo assay and normalized with vehicle (HBSS) treatment. Data represent 3
independent experiments (n=3). SD is shown. Unpaired Student’s t-test ****; P< 0.001; **, P<
(E) Gene expression of MYC, MMP9 and BIRC5 was detected by qPCR and normalized with
ACTB after vehicle, 1 µM of PO-or PS-acet.-STAT3 peptide treatment with CRC PDX tumor
cells. Data represent 3 independent experiments (n=3). SD is shown. One-way ANOVA. ****; P<

exportin 7 = biological target: T1, exportin 7 (Homo sapiens, UniProt Q9UIA9); assay: Immunoprecipitation of FAM-labeled peptide and Western blotting, exportin 7; type: binding; details: anti-FITC (FAM) immunoprecipitation, Western blotting, U251 cells
T1 construct: endogenous in cells; host or cells: U251
Experimental: Data are representative of 3 independent experiments (n = 3).
(§1) Whole cell lysates or tissue homogenates were prepared by using RIPA lysis buffer (50 mM Tris at pH 7.4, 150 mM NaCl, 1 mM EDTA, 0.5% NP-40, 1 mM NaF, 15% glycerol, and 20 mM β-glycerophosphate). A protease inhibitor cocktail (Mini Protease Inhibitor Cocktail; Roche) and a tyrosine phosphatase inhibitor, sodium orthovanadate (Na3VO4, 1 mM), were added freshly to the lysis buffer. Protein amounts were determined by BCA using a Thermo Fisher Scientific kit. Normalized protein amounts were subjected to an SDS-PAGE and transferred onto a nitrocellulose membrane for Western blotting. Proteins were visualized with a chemiluminescent detection kit (Pierce, Thermo Fisher Scientific). The protein levels for STAT1 (sc-346, E-23), STAT3 (sc-482, C-20), STAT5 (sc-74442, A-9), Crm1 (exportin 1) (sc-5595, H-300), CAS (exportin 2) (sc-271537, H-2), exportin 5 (sc-66885, H-300), and exportin 7 (sc-98639, H-82) were determined using antibodies from Santa Cruz Biotechnology Inc. Anti–exportin 3 (exportin T, 630622, LOS1 05-1525), anti–exportin 4 (3499-1), and anti–exportin 6 (11408-1-AP) were from MilliporeSigma, Epitomics, and Proteintech, respectively. […]

HCT116 cells = type: cell-based, human
Experimental: Bis-(1,3-Dibutylbarbituric Acid) Trimethine Oxonol [DiBAC4(3)]
Supplemental Figure 3 (related to Figure 1). The potential mechanism of PS-oligo
mediated cell penetration.
penetration was assessed by flow cytometry. SD is shown. Unpaired student t-test. ****
P< 0.001. Data shown is the representative of 3 independent experiments.
(B) HCT116 cells were pre-treated with a variety of endocytosis inhibitors prior to
treating with FAM-labeled PS-acet.-STAT3 peptide. The graph represents the statistical
analysis of the fluorescence intensity (M.F.I) of FAM-labeled peptide shown in A. SD is
shown. n= 5 independent experiments. Unpaired student t-test. **** P< 0.001.
(C) Polarization of cell membrane contributes to penetration of PS-acet.-STAT3
peptide. Cell membrane was depolarized by adding 120 mM KCl to HCT116 for 2.5 h,
followed by incubation with the peptide (upper panel). Data is representative of 4
independent experiments. Depolarization of the cell membrane was confirmed by
applying 2.5 mM DiBAC4(3) to other cells (lower panel). n= 3 independent experiments.
Penetration was assessed by flow cytometry. The right panels show the mean of
fluorescence intensity (M.F.I) quantified by FlowJo software. SD is shown. Unpaired
student t-test. *, P<0.05; *** P< 0.005.
Aftabizadeh and Li et al., Figure S3

acetyl-STAT3 = biological target: T2, acetyl-STAT3 (Homo sapiens, UniProt P40763); assay: Immunoprecipitation of PS-oligo and Western blotting, acetyl-STAT3; type: binding; details: HCT116 cells, immunoprecipitation of PS-oligo, Western blotting
T2 construct: endogenous in cells; host or cells: HCT116
Experimental: as §1
labeled PS-acet.-STAT3 peptide. The fluorescence intensity of FAM-labeled PS-acet.-STAT3 peptide in the cells was quantified by flow cytometry. […]
quantification of FAM. […]
above were assessed by qRT-PCR. […]

T1 sequence (Q9UIA9 whole entry): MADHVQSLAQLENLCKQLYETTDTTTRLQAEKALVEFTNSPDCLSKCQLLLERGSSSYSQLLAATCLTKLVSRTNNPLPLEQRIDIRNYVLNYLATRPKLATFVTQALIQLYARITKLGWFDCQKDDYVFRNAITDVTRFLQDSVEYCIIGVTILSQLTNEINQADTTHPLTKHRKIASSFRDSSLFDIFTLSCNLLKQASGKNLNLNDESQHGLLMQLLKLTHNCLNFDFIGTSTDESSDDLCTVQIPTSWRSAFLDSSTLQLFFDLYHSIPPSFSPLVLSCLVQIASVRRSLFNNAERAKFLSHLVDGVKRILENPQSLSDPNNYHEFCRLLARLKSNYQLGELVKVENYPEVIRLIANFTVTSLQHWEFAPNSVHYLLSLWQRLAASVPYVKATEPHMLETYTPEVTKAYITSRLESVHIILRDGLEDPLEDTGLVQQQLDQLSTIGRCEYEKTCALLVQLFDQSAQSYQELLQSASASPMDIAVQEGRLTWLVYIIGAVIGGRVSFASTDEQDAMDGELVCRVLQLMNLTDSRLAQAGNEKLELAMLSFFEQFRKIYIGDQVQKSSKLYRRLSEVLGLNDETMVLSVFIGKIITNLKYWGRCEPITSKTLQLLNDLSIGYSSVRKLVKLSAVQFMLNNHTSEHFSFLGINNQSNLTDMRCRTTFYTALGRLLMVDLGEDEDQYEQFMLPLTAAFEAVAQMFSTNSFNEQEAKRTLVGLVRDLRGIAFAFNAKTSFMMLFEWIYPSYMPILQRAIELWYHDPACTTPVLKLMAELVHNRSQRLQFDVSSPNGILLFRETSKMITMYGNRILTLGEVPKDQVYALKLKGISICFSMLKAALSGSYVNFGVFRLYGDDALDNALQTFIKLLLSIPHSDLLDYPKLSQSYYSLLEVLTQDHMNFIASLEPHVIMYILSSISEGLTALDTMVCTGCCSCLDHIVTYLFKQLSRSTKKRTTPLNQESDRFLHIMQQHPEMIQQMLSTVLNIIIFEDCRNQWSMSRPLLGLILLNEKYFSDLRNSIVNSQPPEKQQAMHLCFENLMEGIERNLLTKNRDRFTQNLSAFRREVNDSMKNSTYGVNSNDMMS
T2 sequence (P40763 whole entry): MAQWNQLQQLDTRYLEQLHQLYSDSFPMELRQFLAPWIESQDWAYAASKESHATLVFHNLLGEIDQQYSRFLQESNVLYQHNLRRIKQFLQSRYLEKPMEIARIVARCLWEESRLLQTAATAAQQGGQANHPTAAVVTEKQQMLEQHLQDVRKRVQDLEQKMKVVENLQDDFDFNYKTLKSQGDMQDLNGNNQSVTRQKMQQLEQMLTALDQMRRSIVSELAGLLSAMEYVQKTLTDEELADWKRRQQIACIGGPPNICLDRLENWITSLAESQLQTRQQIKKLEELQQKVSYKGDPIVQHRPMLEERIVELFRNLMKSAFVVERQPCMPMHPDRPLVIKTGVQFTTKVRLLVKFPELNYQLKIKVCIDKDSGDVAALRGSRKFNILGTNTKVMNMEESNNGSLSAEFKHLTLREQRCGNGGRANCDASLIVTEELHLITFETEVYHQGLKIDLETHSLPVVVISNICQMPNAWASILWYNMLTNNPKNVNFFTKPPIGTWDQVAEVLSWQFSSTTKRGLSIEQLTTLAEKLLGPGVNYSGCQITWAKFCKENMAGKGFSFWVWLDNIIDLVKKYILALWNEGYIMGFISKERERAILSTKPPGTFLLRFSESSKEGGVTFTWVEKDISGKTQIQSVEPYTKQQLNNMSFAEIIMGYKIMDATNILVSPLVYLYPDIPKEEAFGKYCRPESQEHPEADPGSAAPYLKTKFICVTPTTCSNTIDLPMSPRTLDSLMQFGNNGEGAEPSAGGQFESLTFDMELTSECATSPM

Question: How did the “effects on cell proliferation and gene expression of STAT3 target genes in patient primary tumor spheres” value ([1]; 3 days, CellTiter Glo, 1 µM, qPCR of MYC, MMP9, BIRC5, n = 3) turn out when “PDIPKEEAFGK685(Ac)YCRPESQEHPC-linker-T*C*C*A*T*G*A*G*C*T*T*C*C*T*G*A*T*G*C*T [PS-acet.-STAT3 peptide]” was run?
Answer: Its value is “significant inhibitory effects”.

Question: What about the “cell permeability in patient primary tumor spheres” value ([1]; not told) of the same substance?
Answer: Its value is “high cell permeability”.

Question: And the “binding to exportin 7” value (exportin 7)?
Answer: The value was “bound”.

Question: And the “peptide penetration in presence of dextran sulfate” value (HCT116 cells)?
Answer: The value was “partially”.

Question: And the “binding to acetyl-STAT3” value (acetyl-STAT3)?
Answer: Its value is “directly bound”.
